As usually defined, the EC50 is the midpoint of the concentration-response curve. A word on the EC90: it is the concentration at which the effect reaches the 90% level. One may read the IC50 as the concentration at which inhibition is half-maximal. Broadly, the Kd is the constant that tells how readily two partners part at equilibrium.

One data set has as its system DENV2 (NGC). The experiment in a line: In vitro anti-DENV assay, RT-qPCR. The format is cell-based, Dengue-2 virus. The following applies: Dengue virus.
The target of another data set is T1, ZIKV NS5 polymerase (Zika virus, UniProt A0A024B7W1).
T1 construct: NS5 (amino acids 1 to 903); His tag (8x histidine) (N); made in house; host or cells: Escherichia coli (Rosetta)
T1 sequence (A0A024B7W1 2521-3423): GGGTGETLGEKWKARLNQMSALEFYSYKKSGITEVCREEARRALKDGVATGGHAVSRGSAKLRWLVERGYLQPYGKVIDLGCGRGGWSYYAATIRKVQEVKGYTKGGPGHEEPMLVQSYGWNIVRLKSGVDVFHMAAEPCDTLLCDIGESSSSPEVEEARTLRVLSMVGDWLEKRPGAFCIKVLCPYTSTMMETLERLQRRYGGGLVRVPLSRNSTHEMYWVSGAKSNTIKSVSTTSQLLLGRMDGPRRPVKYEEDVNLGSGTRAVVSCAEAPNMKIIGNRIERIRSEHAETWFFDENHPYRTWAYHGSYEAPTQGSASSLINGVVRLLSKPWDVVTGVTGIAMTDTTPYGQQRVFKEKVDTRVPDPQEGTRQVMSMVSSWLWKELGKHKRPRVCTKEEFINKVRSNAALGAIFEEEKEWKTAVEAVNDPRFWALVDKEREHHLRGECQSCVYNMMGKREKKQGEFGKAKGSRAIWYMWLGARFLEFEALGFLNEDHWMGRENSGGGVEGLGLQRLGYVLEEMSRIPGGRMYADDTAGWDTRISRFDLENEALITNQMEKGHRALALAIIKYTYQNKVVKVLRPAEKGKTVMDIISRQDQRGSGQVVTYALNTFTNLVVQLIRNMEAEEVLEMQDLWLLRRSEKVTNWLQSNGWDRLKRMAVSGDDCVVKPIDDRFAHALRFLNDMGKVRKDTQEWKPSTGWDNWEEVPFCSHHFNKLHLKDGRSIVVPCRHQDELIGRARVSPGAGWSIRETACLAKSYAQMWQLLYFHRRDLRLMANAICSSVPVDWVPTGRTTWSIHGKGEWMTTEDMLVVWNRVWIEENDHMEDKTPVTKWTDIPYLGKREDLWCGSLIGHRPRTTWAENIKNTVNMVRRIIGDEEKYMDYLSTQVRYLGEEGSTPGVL
In words: Polymerase activity assay (non-radioactive primer extension). The format is biochemical. Particulars: NS5 20 nM, Primer/Template 10 nM, 2 h at 37 °C, quantified by amount of RNA products; read-out: IC50 of RdRp-catalyzed RNA synthesis. The procedure:
ZIKV NS5 polymerase activity was determined using a primer extension reaction with a fluorescently labeled RNA primer/RNA template complex (P/T) as described by Lu et al.. Briefly, fluorescently labeled oligonucleotide primer (Cy5-RNA) and unlabeled RNA template were mixed and then slowly cooled down for annealing. A typical primer extension reaction was performed by ZIKV NS5 polymerase at various concentrations, followed by incubation for 2 h at 37 °C. To determine the inhibitory activity of fidaxomicin, the polymerase reactions were initiated by addition of fidaxomicin at gradient concentrations ranging between 0 and 200 μM. The products were detected by denaturing polyacrylamide gel electrophoresis (Urea PAGE), and the results were scanned using an Odyssey infrared imaging system (LI-COR Biosciences, Lincoln, NE). The images were analyzed, and proper RNA bands were quantified using Image J software version 1.52a (NIH, Bethesda, MD, USA).

A further data set in a line: in vitro. The following applies: African green monkey.
For a further data set, the target named is T2, ZIKV RdRp protein (Zika virus, UniProt A0A024B7W1).
T2 construct: RdRp (amino acids 272 to 903); His tag (8x histidine) (N); made in house; host or cells: Escherichia coli (Rosetta)
T2 sequence (A0A024B7W1 2792-3423): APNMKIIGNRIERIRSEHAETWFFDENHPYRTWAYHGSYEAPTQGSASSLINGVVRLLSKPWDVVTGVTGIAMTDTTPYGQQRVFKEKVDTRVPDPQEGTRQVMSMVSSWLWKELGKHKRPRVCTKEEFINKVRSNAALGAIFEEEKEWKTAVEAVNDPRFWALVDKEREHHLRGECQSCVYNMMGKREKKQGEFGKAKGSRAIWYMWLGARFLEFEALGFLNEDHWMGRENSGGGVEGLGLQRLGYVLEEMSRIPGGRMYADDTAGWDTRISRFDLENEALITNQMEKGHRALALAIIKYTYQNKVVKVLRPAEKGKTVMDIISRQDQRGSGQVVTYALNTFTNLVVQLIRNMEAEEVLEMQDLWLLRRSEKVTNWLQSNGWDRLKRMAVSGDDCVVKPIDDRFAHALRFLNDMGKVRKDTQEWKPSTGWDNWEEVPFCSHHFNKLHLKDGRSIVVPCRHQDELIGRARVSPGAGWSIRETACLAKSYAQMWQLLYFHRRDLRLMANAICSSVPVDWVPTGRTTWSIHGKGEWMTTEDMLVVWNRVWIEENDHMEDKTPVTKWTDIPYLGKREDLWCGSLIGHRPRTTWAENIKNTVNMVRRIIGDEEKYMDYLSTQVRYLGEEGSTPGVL
In words: SPR (BIAcore) binding to ZIKV RdRp protein. The procedure:
The cDNA fragment of ZIKV (ZG-01 strain) NS5 (amino acids 1 to 903), RdRp (amino acids 272 to 903), or DENV2 NS5 (amino acids 1 to 900) containing an N-terminal His tag sequence was cloned into a pET-30a-mutant vector. For protein expression, the plasmids were transformed into Rosetta™ competent cells (TIANGEN BIOTECH Co., Ltd., Beijing, China), respectively. […] Mass spectrometry was performed by Shanghai Applied Protein Technology Co. Ltd. (Shanghai, China). The concentration of a targeted protein was measured by SDS-PAGE using BSA (Sigma, St. Louis, MO) as a standard.
Surface plasmon resonance (SPR) experiments were performed in a BIAcore T100 device (BIAcore Inc., Uppsala, Sweden) using CM5 sensor chips (General Electric Company, GE) according to the protocol provided by the manufacturer. Briefly, recombinant ZIKV NS5 protein, RdRp protein, or DENV2 NS5 protein was immobilized on a CM5 chip, respectively. Different concentrations of fidaxomicin or ribavirin were injected at a flow rate of 30 μL/min for 3 min. Subsequently, data were collected for a 3-min association followed by a 20-min dissociation. The chip was regenerated by injecting 10 μL of 15 mM NaOH for 20 s. All procedures were run in 1% DMSO PBS-P20 (GE) as a running buffer. The binding kinetics was analyzed with the software BIAevaluation version 3.1 using a 1:1 Langmuir binding model. The Kd was calculated as previously described.
On the technique in general: In SPR one partner is held on a chip, and binding of the other changes the refractive index at the surface.

The subject of data set [1] is suppression of IFN signaling induced by ZIKV NS5. The experiment in a line: pISRE-Luc luciferase reporter assay in 293T cells. The format is cell-based, human. Particulars: RIG-I(N) driven, 30 h treatment. The procedure: 293T cells were cultured in 24-well plates (~ 1 × 10^5 cells per well) and co-transfected with pISRE-Luc (100 ng) and the plasmid coding for RIG-I (100 ng) together with the ZIKV NS5 plasmid at indicated concentrations. Control pcDNA3.1 vector was added to ensure that the same total amount of DNA was used for each transfection. To normalize for transfection efficiency, 5 ng of the constitutive Renilla luciferase reporter pRL-TK (Promega, San Luis Obispo, CA, USA) was added to each transfection. Six hours after transfection, cells were treated by fidaxomicin at indicated concentration for 30 h, followed by analysis of cell lysates for luciferase activity using the Dual-Luciferase Reporter Assay System Kit (Promega) according to the manufacturer’s protocol.
(A reporter such as luciferase makes a cellular process visible.)

Structures are written as SMILES.

As for `CCc1c(Cl)c(O)c(Cl)c(O)c1C(=O)O[C@H]1[C@H](O)[C@H](OC)[C@H](OC/C2=C\C=C\C[C@H](O)/C(C)=C/[C@H](CC)[C@@H](O[C@@H]3OC(C)(C)[C@@H](OC(=O)C(C)C)[C@H](O)[C@@H]3O)/C(C)=C/C(C)=C/C[C@@H]([C@@H](C)O)OC2=O)O[C@@H]1C` [Fidaxomicin], the EC50 in the data set on DENV2 (NGC) (DENV2, A549 cells) is 9.9 ± 2.5 µM; in the data set on DENV2 (NGC) (DENV2, SNB-19, SNB19 cells), 6.8 ± 1.5 µM. The EC90 with DENV2 (NGC) (DENV2, A549 cells) came to 18 ± 4.2 µM; in the data set with DENV2 (NGC) (DENV2, SNB-19, SNB19 cells) it was 10.6 ± 2.1 µM. The IC50 on ZIKV NS5 polymerase was 10.9 µM. The CC50 at 48 h in the data set “in vitro” turned out to be 126 ± 10.3 µM. On ZIKV RdRp protein, this compound displayed a Kd of 23.2 µM. Moreover, the “binding to ZIKV RdRp protein (SPR)” value at ZIKV RdRp protein (qualitative) is listed as “strong, clear binding”. The “effect on NS5 suppression of ISRE reporter luciferase activity” value in data set [1] is “did not liberate the suppression of IFN signaling”.

The values are drawn from publication PMC7392643, “Antibiotic fidaxomicin is an RdRp inhibitor as a potential new therapeutic agent against Zika virus” (BMC Medicine, 2020).
